These are literature values, as cited in patent US12642772B2, “Triptolide formulations” (MINNEAMRITA THERAPEUTICS LLC, priority 2024, dated 2026).

With `CC(C)[C@]12O[C@H]1[C@@H]1O[C@]13[C@]1(O[C@H]1C[C@H]1C4=C(CC[C@@]13C)C(=O)OC4)[C@@H]2O` [triptolide, Triptolide], the solubility in water result is recorded as “approximately 0.017 mg/mL”.
